These results are taken from BindingDB's records for PubMed 28189086 (Texas Southern University, 2017).

As usually defined, the IC50 is the concentration at which inhibition is half-maximal. The low end stands for higher potency, the high end for lower potency.

Maltase-glucoamylase, sequence (O43451 whole entry): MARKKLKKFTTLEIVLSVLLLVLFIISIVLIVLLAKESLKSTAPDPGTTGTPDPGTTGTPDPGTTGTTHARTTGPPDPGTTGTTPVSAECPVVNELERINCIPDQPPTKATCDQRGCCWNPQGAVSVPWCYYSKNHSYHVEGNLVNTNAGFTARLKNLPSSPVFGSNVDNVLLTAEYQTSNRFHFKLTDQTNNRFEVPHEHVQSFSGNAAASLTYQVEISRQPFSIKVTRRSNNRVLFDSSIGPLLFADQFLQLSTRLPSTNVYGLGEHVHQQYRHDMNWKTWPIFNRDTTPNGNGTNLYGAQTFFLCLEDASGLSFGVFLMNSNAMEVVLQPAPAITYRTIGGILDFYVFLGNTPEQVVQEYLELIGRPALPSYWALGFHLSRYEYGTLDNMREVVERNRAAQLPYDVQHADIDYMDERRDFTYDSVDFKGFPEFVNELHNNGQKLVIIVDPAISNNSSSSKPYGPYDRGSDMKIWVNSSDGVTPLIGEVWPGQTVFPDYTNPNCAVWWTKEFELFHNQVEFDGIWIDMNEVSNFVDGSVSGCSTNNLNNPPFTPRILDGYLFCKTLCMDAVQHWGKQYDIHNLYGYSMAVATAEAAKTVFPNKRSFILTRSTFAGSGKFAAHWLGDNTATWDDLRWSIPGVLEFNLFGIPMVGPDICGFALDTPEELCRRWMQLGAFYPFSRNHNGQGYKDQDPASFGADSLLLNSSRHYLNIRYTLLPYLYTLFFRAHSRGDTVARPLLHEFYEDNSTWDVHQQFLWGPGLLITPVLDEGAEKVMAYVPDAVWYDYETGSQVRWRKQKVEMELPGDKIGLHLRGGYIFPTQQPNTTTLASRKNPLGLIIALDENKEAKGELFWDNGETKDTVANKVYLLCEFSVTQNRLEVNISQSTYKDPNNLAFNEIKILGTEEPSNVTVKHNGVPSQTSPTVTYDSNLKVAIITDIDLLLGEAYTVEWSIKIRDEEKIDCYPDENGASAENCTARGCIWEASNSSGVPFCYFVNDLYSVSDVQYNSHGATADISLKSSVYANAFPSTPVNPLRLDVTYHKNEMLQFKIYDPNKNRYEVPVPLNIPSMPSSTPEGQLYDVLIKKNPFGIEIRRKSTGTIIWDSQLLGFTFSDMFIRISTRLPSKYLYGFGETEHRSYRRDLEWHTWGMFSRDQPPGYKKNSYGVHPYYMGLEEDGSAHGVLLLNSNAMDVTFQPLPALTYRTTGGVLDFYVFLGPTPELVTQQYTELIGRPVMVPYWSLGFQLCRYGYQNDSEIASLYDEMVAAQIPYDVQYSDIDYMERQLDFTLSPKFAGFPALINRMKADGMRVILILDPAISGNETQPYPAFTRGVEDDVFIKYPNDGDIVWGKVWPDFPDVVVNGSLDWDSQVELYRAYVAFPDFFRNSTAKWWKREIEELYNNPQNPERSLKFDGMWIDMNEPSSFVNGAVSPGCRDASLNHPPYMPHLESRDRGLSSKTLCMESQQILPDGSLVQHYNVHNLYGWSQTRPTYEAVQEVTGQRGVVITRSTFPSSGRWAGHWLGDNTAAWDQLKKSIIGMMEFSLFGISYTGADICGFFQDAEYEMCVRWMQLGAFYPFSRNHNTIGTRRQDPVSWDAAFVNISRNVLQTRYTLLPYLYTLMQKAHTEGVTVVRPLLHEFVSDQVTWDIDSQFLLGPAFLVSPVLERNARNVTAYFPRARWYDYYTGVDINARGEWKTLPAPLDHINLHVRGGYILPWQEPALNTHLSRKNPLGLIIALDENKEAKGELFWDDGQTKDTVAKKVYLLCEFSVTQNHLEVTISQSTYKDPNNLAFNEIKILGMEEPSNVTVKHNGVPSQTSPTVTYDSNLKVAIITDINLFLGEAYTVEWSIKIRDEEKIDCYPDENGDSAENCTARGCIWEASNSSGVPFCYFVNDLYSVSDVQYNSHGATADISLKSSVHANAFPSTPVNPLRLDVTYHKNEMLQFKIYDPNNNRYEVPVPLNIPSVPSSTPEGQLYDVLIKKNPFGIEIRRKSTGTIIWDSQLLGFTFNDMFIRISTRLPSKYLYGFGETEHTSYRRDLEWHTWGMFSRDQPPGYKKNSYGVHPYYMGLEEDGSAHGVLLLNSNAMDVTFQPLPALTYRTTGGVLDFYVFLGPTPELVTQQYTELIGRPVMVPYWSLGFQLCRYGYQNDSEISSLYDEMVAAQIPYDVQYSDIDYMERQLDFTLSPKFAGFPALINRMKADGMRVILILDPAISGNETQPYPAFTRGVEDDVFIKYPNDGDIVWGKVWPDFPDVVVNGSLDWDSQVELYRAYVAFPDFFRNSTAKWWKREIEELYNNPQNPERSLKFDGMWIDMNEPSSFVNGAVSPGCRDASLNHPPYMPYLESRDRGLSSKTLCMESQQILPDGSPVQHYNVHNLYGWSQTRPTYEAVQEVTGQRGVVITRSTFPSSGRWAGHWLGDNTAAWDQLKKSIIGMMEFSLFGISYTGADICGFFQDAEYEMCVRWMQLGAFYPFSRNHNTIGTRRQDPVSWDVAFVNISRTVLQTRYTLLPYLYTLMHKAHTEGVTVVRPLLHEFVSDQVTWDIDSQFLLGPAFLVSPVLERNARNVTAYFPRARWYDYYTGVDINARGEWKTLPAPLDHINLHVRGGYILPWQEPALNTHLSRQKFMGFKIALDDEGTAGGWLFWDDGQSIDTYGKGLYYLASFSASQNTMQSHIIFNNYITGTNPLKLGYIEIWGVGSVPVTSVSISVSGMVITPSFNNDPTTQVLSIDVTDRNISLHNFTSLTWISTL

The experiment concerns the target Maltase-glucoamylase (Homo sapiens, UniProt O43451). The experiment can be described thus: Inhibition of Alpha-glucosidase (unknown origin).
Consider `COc1ccc2c(c1)OC[C@H]1c3ccc(OC)c(O)c3O[C@@H]21`, for which inhibition was half-maximal at 128 µM (IC50).

`COc1ccc2c(c1OC)O[C@H]1c3ccc(O)cc3OC[C@@H]21`: the IC50 stood at 174 µM.

`O=c1oc2cc(O)ccc2c2oc3cc(O)ccc3c12` [5,14-dihydroxy-8,17-dioxatetracyclo[8.7.0.0^{2,7}.0^{11,16}]heptadeca-1(10),2,4,6,11(16),12,14-heptaen-9-one] showed an IC50 of 6 µM.
